From US20180273531A1, “PYRIMIDINE COMPOUND AND MEDICAL USE THEREOF” (Japan Tobacco Inc., priority 2004, published 2018)

Tested on: colorectal cancer cell line HT-29 cells
Test: Growth inhibitory effect against cancer cell lines (3H-thymidine uptake), HT-29
Assay type: cell-based
Settings: Homo sapiens, HT-29, inhibition of 3H-thymidine uptake; test substance 18 hrs, then 3H-thymidine 6 hrs; triplicate
Outline: (§1)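 Cells seeded at 1.0×10^4/well, grown 24 hrs, then exposed to compound in DMSO for 18 hrs before 6 hrs pulse with ^3H-thymidine (0.25 μCi/well). Harvested cell-incorporated radioactivity counted; IC50 is the concentration halving uptake versus DMSO control, triplicate.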

| SMILES | IC50 |
| --- | --- |
| CC(=O)Nc1ccc(-n2c(=O)n(C3CC3)c(=O)c3c(Nc4ccc(I)cc4F)n(C)c(=O)c(C)c32)cc1 [Example 4-66] | 10 to 100 nM |
| CC(=O)Nc1cccc(-n2c(=O)n(C3CC3)c(=O)c3c(Nc4ccc(C5CC5)cc4F)n(C)c(=O)c(C)c32)c1 [Example 4-67] | < 10 nM |
| C#Cc1ccc(Nc2c3c(=O)n(C4CC4)c(=O)n(-c4ccc(NC(C)=O)cc4)c3c(C)c(=O)n2C)c(F)c1 [Example 4-71] | 10 to 100 nM |
| Cc1c(=O)n(C)c(Nc2ccc(I)cc2F)c2c(=O)n(C3CC3)c(=O)n(-c3ccccc3)c12 [Example 4-72] | < 10 nM |
| Cc1c(=O)n(C)c(Nc2ccc(I)cc2F)c2c(=O)n(C3CC3)c(=O)n(-c3cccc(NC(=O)c4c[nH]cn4)c3)c12 [Example 4-73] | < 10 nM |
| CONC(=O)Nc1cccc(-n2c(=O)n(C3CC3)c(=O)c3c(Nc4ccc(I)cc4F)n(C)c(=O)c(C)c32)c1 [Example 4-74] | < 10 nM |
| C#Cc1ccc(Nc2c3c(=O)n(C4CC4)c(=O)n(-c4ccc(NS(C)(=O)=O)cc4)c3c(C)c(=O)n2C)c(F)c1 [Example 4-76] | < 10 nM |
| CCS(=O)(=O)Nc1ccc(-n2c(=O)n(C3CC3)c(=O)c3c(Nc4ccc(I)cc4F)n(C)c(=O)c(C)c32)cc1 [Example 4-77] | < 10 nM |
| CCc1ccc(Nc2c3c(=O)n(C4CC4)c(=O)n(-c4ccc(NS(C)(=O)=O)cc4)c3c(C)c(=O)n2C)c(F)c1 [Example 4-78] | 10 to 100 nM |

Tested on: p27 protein
Test: p27 protein induction test (Western blotting)
Assay type: cell-based
Settings: test substance (0.1 1M), 24 hrs, ACHN cells or HT-29 cells, compared to DMSO, n=2
Outline: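 ACHN or HT-29 cells grown 24 h, then treated with test substance at […] (DMSO) for 24 h. Lysates normalised by protein content and probed by Western blot with anti-p27 antibody. Band density quantified by densitometer against DMSO control, n=2 averaged.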

| SMILES | fold induction at 0.1 µM |
| --- | --- |
| CC(=O)Nc1ccc(-n2c(=O)n(C3CC3)c(=O)c3c(Nc4ccc(I)cc4F)n(C)c(=O)c(C)c32)cc1 [Example 4-66] | ≥ 1.5 |
| CC(=O)Nc1cccc(-n2c(=O)n(C3CC3)c(=O)c3c(Nc4ccc(C5CC5)cc4F)n(C)c(=O)c(C)c32)c1 [Example 4-67] | ≥ 1.5 |
| C#Cc1ccc(Nc2c3c(=O)n(C4CC4)c(=O)n(-c4ccc(NC(C)=O)cc4)c3c(C)c(=O)n2C)c(F)c1 [Example 4-71] | ≥ 1.5 |
| Cc1c(=O)n(C)c(Nc2ccc(I)cc2F)c2c(=O)n(C3CC3)c(=O)n(-c3ccccc3)c12 [Example 4-72] | ≥ 1.5 |
| Cc1c(=O)n(C)c(Nc2ccc(I)cc2F)c2c(=O)n(C3CC3)c(=O)n(-c3cccc(NC(=O)c4c[nH]cn4)c3)c12 [Example 4-73] | ≥ 1.5 |
| CONC(=O)Nc1cccc(-n2c(=O)n(C3CC3)c(=O)c3c(Nc4ccc(I)cc4F)n(C)c(=O)c(C)c32)c1 [Example 4-74] | ≥ 1.5 |
| C#Cc1ccc(Nc2c3c(=O)n(C4CC4)c(=O)n(-c4ccc(NS(C)(=O)=O)cc4)c3c(C)c(=O)n2C)c(F)c1 [Example 4-76] | ≥ 1.5 |
| CCS(=O)(=O)Nc1ccc(-n2c(=O)n(C3CC3)c(=O)c3c(Nc4ccc(I)cc4F)n(C)c(=O)c(C)c32)cc1 [Example 4-77] | ≥ 1.5 |
| CCc1ccc(Nc2c3c(=O)n(C4CC4)c(=O)n(-c4ccc(NS(C)(=O)=O)cc4)c3c(C)c(=O)n2C)c(F)c1 [Example 4-78] | ≥ 1.5 |

Tested on: Renal cancer cell line ACHN cell
Test: Growth inhibitory effect against cancer cell lines (3H-thymidine uptake), ACHN
Assay type: cell-based
Settings: Homo sapiens, ACHN
Outline: as §1

| SMILES | IC50 |
| --- | --- |
| CC(=O)Nc1ccc(-n2c(=O)n(C3CC3)c(=O)c3c(Nc4ccc(I)cc4F)n(C)c(=O)c(C)c32)cc1 [Example 4-66] | 100 to 1000 nM |
| CC(=O)Nc1cccc(-n2c(=O)n(C3CC3)c(=O)c3c(Nc4ccc(C5CC5)cc4F)n(C)c(=O)c(C)c32)c1 [Example 4-67] | 10 to 100 nM |
| C#Cc1ccc(Nc2c3c(=O)n(C4CC4)c(=O)n(-c4ccc(NC(C)=O)cc4)c3c(C)c(=O)n2C)c(F)c1 [Example 4-71] | 100 to 1000 nM |
| Cc1c(=O)n(C)c(Nc2ccc(I)cc2F)c2c(=O)n(C3CC3)c(=O)n(-c3ccccc3)c12 [Example 4-72] | 10 to 100 nM |
| Cc1c(=O)n(C)c(Nc2ccc(I)cc2F)c2c(=O)n(C3CC3)c(=O)n(-c3cccc(NC(=O)c4c[nH]cn4)c3)c12 [Example 4-73] | 10 to 100 nM |
| CONC(=O)Nc1cccc(-n2c(=O)n(C3CC3)c(=O)c3c(Nc4ccc(I)cc4F)n(C)c(=O)c(C)c32)c1 [Example 4-74] | 10 to 100 nM |
| C#Cc1ccc(Nc2c3c(=O)n(C4CC4)c(=O)n(-c4ccc(NS(C)(=O)=O)cc4)c3c(C)c(=O)n2C)c(F)c1 [Example 4-76] | 10 to 100 nM |
| CCS(=O)(=O)Nc1ccc(-n2c(=O)n(C3CC3)c(=O)c3c(Nc4ccc(I)cc4F)n(C)c(=O)c(C)c32)cc1 [Example 4-77] | 10 to 100 nM |
| CCc1ccc(Nc2c3c(=O)n(C4CC4)c(=O)n(-c4ccc(NS(C)(=O)=O)cc4)c3c(C)c(=O)n2C)c(F)c1 [Example 4-78] | 100 to 1000 nM |

Tested on: p15 protein
Test: Evaluation of p15 induction activity (Western blotting)
Assay type: cell-based
Settings: test substance 0.1 μM, 24 hrs, ACHN cells or HT-29 cells, compared to DMSO, n=2
Outline: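 p15 protein quantified by densitometry of anti-p15 Western blots (10 μg protein per lane, mean of n=2). Samples came from HT-29 or ACHN cells given 0.1 μM compound for 24 h after 24 h plating, with DMSO as control.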

| SMILES | fold induction at 0.1 µM |
| --- | --- |
| CC(=O)Nc1ccc(-n2c(=O)n(C3CC3)c(=O)c3c(Nc4ccc(I)cc4F)n(C)c(=O)c(C)c32)cc1 [Example 4-66] | ≥ 1.5 |
| CC(=O)Nc1cccc(-n2c(=O)n(C3CC3)c(=O)c3c(Nc4ccc(C5CC5)cc4F)n(C)c(=O)c(C)c32)c1 [Example 4-67] | ≥ 1.5 |
| C#Cc1ccc(Nc2c3c(=O)n(C4CC4)c(=O)n(-c4ccc(NC(C)=O)cc4)c3c(C)c(=O)n2C)c(F)c1 [Example 4-71] | ≥ 1.5 |
| Cc1c(=O)n(C)c(Nc2ccc(I)cc2F)c2c(=O)n(C3CC3)c(=O)n(-c3ccccc3)c12 [Example 4-72] | ≥ 1.5 |
| Cc1c(=O)n(C)c(Nc2ccc(I)cc2F)c2c(=O)n(C3CC3)c(=O)n(-c3cccc(NC(=O)c4c[nH]cn4)c3)c12 [Example 4-73] | ≥ 1.5 |
| CONC(=O)Nc1cccc(-n2c(=O)n(C3CC3)c(=O)c3c(Nc4ccc(I)cc4F)n(C)c(=O)c(C)c32)c1 [Example 4-74] | ≥ 1.5 |
| C#Cc1ccc(Nc2c3c(=O)n(C4CC4)c(=O)n(-c4ccc(NS(C)(=O)=O)cc4)c3c(C)c(=O)n2C)c(F)c1 [Example 4-76] | ≥ 1.5 |
| CCS(=O)(=O)Nc1ccc(-n2c(=O)n(C3CC3)c(=O)c3c(Nc4ccc(I)cc4F)n(C)c(=O)c(C)c32)cc1 [Example 4-77] | ≥ 1.5 |
| CCc1ccc(Nc2c3c(=O)n(C4CC4)c(=O)n(-c4ccc(NS(C)(=O)=O)cc4)c3c(C)c(=O)n2C)c(F)c1 [Example 4-78] | ≥ 1.5 |
